{"source": "patent US9687480B2", "about": "“Chiral 1-(4-methylphenylmethyl)-5-oxo-{N-[(3-t-butoxycarbonyl-aminomethyl)]-piperidin-1-yl)-pyrrolidine as inhibitors of collagen induced platelet activation and adhesion” (Council of Scientific & Industrial Research, priority 2011, dated 2017)", "key": {"[1]": {"test_system": "human platelet rich plasma (ADP induced aggregation)", "assay": "ADP induced platelet aggregation, human platelet rich plasma (in vitro)", "format": "cell-based", "experimental": "The reaction was allowed to proceed for at least 5 min, and the extent of aggregation was expressed in light-transmission units (Ivandic B T, Schlick P, Starltz P, Kurz K, Katas H A, Giannitsis E. Determination of clopidogrel resistance by whole blood platelet aggregometry and inhibitors of the P2Y12 receptor. Clinical Chemistry 2006: 52:383-88).\nThe percentage of aggregation was calculated by using following formula: Percent Aggregation=A/B×100 Where, A is the number of division traversed by the label on chart in the presence of Inducer & B is the total number of divisions (80). Platelet Aggregation Studies (FIG. 3) a) Platelet Aggregation (Human, In Vitro) (FIG. 3a (i) (ii) (iii))"}, "human α-thrombin": {"target": "T1, human α-thrombin (Homo sapiens, UniProt P00734)", "T1 construct": "amidolytic activity of human α-thrombin using fluorogenic substrate", "assay": "Amidolytic assay of thrombin activity (fluorogenic substrate)", "format": "biochemical", "conditions": "compound 1 at 300 μM and 1 mM after 15 min of substrate incubation"}, "hyperlipidemic hamsters": {"test_system": "hyperlipidemic hamsters", "assay": "FeCl3 induced thrombosis in hyperlipidemic hamsters", "format": "in vivo", "conditions": "for time to occlusion (TTO): HCHF fed hamsters", "experimental": "HCHF treated hamsters were anesthetized by urethane (1.25 g/kg, i.p.). The carotid artery was carefully dissected and a pulsed Doppler Probe (DBF-120A-CPx, CBI-8000, Crystal Biotech. USA) was placed around it to record the blood flow velocity and potency of the blood vessels. The carotid artery thrombosis was induced by FeCl3 as follows: a square (1×1 mm) of Whatman Chromatography paper was immersed in 30% FeCl3 solution for 5 min and placed on the carotid artery as described earlier (Kurz K D, Main B W, Sandusky G E. Rat model of arterial thrombosis induced by ferric chloride. Thromb Res 1990; 60(4):269-80). Thrombosis was monitored as the reduction in carotid artery blood flow. The time at which the blood-flow velocity was decreased to zero was recorded as the total of occlusion of the vessel."}}}
{"smiles": "Cc1ccc(CN2C(=O)CC[C@H]2C(=O)N2CCCC(CNC(=O)OC(C)(C)C)C2)cc1", "note": "(stereo partly drawn) [Compound 1, 1-(4-methylphenylmethyl)-5-oxo-{N-[(3-t-butoxycarbonyl-aminomethyl)]-piperidin-1-yl}-pyrrolidine-2-carboxamides]", "values": [{"measurement": "effect on ADP induced platelet aggregation", "setting": "[1]; concentration not given", "result": "no effect"}, {"measurement": "thrombin amidolytic activity", "setting": "human α-thrombin", "result": "significant inhibitory effect"}, {"measurement": "time to occlusion (TTO)", "setting": "hyperlipidemic hamsters", "result": "remained ineffective"}]}
{"smiles": "Cc1ccc(CN2C(=O)CC[C@H]2C(=O)N2CCC[C@@H](CNC(=O)OC(C)(C)C)C2)cc1", "note": "[Compound 6]", "values": [{"measurement": "effect on ADP induced platelet aggregation", "setting": "[1]; concentration not given", "result": "no effect"}, {"measurement": "effect on ADP induced platelet aggregation", "setting": "[1]; up to 300 μM", "result": "did not exhibit any effect"}, {"measurement": "thrombin amidolytic activity", "setting": "human α-thrombin", "result": "remained ineffective"}, {"measurement": "time to occlusion (TTO)", "setting": "hyperlipidemic hamsters", "result": "significantly increased"}, {"measurement": "Ferric chloride induced thrombosis in hyperlipidemic hamsters", "setting": "hyperlipidemic hamsters; Table 2 summary", "result": "Protective"}]}
{"smiles": "Cc1ccc(CN2C(=O)CC[C@H]2C(=O)N2CCC[C@H](CNC(=O)OC(C)(C)C)C2)cc1", "note": "[Compound 7, (2S)-1-(4-methylphenylmethyl)-5-oxo-(3R)-{N-[(3-t-butoxycarbonyl-aminomethyl)]-piperidin-1-yl}-pyrrolidine-2-carboxamide]", "values": [{"measurement": "effect on ADP induced platelet aggregation", "setting": "[1]; concentration not given", "result": "no effect"}, {"measurement": "effect on ADP induced platelet aggregation", "setting": "[1]; up to 300 μM", "result": "did not exhibit any effect"}, {"measurement": "thrombin amidolytic activity", "setting": "human α-thrombin", "result": "actively attenuated"}, {"measurement": "time to occlusion (TTO)", "setting": "hyperlipidemic hamsters", "result": "remained ineffective"}]}
